Target: T1, PI3Kalpha (Homo sapiens, UniProt P42336)
T1 construct: His (N); host or cells: SF9 insect cells (baculovirus co-infection)
Assay: PI3K enzyme HTRF assay (PI3Kalpha)
Format: biochemical
Source text: Active phosphatidylinositol 3′ kinase (PI3K) enzyme is purified at Millennium Pharmaceuticals from SF9 insect cells (Invitrogen) co-infected with baculovirus containing amino-terminal His-tagged p110α and p85α expression constructs.
The PI3K enzyme HTRF® assay makes use of an energy transfer complex comprised of biotin-PI(3,4,5)P3, Europhium labeled anti-GST monoclonal antibody, a GST-tagged GRP1 pleckstrin homology (PH) domain, and Streptavidin-APC (allophycocyanin). Excitation of the Europium in the complex results in a stable time-resolved fluorescence resonance energy transfer (FRET) signal. Phosphatidylinositol 3,4,5 triphosphate (PI(3,4,5)P3, the product of PI3K, disrupts the energy transfer complex by competing with biotin-PI(3,4,5)P3 for binding to the GRP1 PH domain, resulting in a decreased fluorescent signal. Inhibitors of PI3K in the reaction prevent a decrease in the fluorescent signal.
PI3K enzyme (325 pM) is incubated with di-C8 PI(4,5)P2 substrate (3.5 μM, CellSignals, Inc.) in assay buffer (50 mM HEPES pH 7.0, 5 mM DTT, 150 mM NaCl, 10 mM β-glycerophosphate, 5 mM MgCl2, 0.25 mM sodium cholate, 0.001% CHAPS) containing 25 μM ATP and 0.5 μL of test compound (in 100% DMSO) at multiple concentrations in a final volume of 20.5 μL in 384 well plates for 30 min at 22-23° C. […] Fluorescent signal for each well is then measured on an LJL_Analyst (Molecular Devices). […]

T1 sequence (P42336 whole entry): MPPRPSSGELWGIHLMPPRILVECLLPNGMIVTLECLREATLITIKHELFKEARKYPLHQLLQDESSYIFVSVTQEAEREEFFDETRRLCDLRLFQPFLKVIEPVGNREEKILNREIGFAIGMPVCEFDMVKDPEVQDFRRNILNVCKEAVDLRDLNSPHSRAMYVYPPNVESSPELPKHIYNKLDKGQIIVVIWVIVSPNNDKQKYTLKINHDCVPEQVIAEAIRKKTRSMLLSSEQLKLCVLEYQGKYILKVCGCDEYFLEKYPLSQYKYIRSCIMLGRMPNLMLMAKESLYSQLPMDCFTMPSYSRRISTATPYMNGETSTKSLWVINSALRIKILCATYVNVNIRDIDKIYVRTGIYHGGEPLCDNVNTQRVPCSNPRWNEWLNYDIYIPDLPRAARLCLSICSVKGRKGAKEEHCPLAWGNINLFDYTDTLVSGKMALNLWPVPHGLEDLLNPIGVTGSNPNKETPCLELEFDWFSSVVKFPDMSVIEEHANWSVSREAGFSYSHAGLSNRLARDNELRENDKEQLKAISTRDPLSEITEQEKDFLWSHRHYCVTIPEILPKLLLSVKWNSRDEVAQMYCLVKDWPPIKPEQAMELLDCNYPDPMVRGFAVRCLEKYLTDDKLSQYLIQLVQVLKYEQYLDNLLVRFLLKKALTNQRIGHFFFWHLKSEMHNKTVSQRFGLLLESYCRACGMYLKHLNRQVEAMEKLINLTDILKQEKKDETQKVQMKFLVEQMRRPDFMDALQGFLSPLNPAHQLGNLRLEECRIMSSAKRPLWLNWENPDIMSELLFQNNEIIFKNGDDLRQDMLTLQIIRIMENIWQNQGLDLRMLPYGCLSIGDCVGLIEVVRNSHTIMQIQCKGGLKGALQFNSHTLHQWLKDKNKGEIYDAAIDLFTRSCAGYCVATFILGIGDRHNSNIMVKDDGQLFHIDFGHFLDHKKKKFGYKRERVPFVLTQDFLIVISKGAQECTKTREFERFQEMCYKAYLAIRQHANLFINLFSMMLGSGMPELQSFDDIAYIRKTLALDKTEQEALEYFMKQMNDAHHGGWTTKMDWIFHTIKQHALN
T1 sequence (P27986 whole entry partner): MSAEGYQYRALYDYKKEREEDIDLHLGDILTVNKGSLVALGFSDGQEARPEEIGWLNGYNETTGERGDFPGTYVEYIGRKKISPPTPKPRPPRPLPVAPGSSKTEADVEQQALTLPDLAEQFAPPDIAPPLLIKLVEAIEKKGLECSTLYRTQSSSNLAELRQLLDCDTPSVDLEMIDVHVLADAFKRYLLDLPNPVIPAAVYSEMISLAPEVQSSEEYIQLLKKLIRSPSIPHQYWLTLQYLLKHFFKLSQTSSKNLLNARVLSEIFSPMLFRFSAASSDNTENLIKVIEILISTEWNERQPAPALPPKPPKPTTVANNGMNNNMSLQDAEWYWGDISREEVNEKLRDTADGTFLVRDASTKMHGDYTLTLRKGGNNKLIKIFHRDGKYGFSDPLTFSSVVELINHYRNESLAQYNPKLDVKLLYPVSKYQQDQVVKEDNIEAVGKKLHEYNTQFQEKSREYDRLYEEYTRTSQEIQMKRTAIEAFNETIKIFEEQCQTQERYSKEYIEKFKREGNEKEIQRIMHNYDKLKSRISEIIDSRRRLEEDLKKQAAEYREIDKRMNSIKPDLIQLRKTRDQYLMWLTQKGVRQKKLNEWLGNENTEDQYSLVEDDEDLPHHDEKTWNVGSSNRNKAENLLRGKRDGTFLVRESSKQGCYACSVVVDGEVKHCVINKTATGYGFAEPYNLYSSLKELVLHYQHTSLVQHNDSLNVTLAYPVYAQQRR

CC(=O)Nc1cc(-c2nc(-c3ccccc3Cl)c(NC(C)=O)s2)ccn1 [Example C-1, N-{4-[5-(acetylamino)-4-(2-chlorophenyl)-1,3-thiazol-2-yl]pyridin-2-yl}acetamide]
IC50: > 1000 nM

— patent publication US9139589B2, “Heteroaryls and uses thereof” (Millennium Pharmaceuticals, Inc., priority 2009, dated 2015)
